This passage reports T/C results from PubChem BioAssay AID292 (DTP/NCI, 2004).

“And” between values parts separate entries of the source, which are not always exact repeats. Equal values may be shown once. Inconclusive results and toxic doses are left out.

For the experiment, the system named is B6C3F1 mice, ip Sarcoma M5076, median survival T/C. The experiment is described as follows: NCI In Vivo Anticancer Drug Screen. Data for tumor model Sarcoma M5076 (intraperitoneal) in B6C3F1 mice. The following applies: endpoint: median survival time, higher = longer survival. A digest of the protocol:
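Survival measured in treated (T) and vehicle control (C) mice with transplantable tumour; result given as T divided by C.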

[1] abbreviates: dose: 50.0 mg/kg/injection, schedule: Q04DX004 (ip), vehicle: saline with Tween-80.
Setting [2] is: dose: 100.0 mg/kg/injection, schedule: Q04DX004 (ip), vehicle: saline with Tween-80.
[3] abbreviates: dose: 200.0 mg/kg/injection, schedule: Q04DX004 (ip), vehicle: saline with Tween-80.
Setting [4] is: dose: 50.0 mg/kg/injection, schedule: Q04DX004 (ip), vehicle: Klucel (hydroxypropylcellulose) (HPC).
Setting [5] is: dose: 100.0 mg/kg/injection, schedule: Q04DX004 (ip), vehicle: Klucel (hydroxypropylcellulose) (HPC).
The mark [6] stands for this setting: dose: 200.0 mg/kg/injection, schedule: Q04DX004 (ip), vehicle: Klucel (hydroxypropylcellulose) (HPC).
Where [7] appears, read: dose: 6.25 mg/kg/injection, schedule: Q04DX004 (ip), vehicle: water.
Setting [8] is: dose: 12.5 mg/kg/injection, schedule: Q04DX004 (ip), vehicle: water.
Where [9] appears, read: dose: 37.5 mg/kg/injection, schedule: Q04DX004 (ip), vehicle: saline with Tween-80.
The mark [10] stands for this setting: dose: 75.0 mg/kg/injection, schedule: Q04DX004 (ip), vehicle: saline with Tween-80.
Setting [11] is: dose: 150.0 mg/kg/injection, schedule: Q04DX004 (ip), vehicle: saline with Tween-80.
Where [12] appears, read: dose: 300.0 mg/kg/injection, schedule: Q04DX004 (ip), vehicle: saline with Tween-80.
Where [13] appears, read: dose: 75.0 mg/kg/injection, schedule: Q04DX004 (ip), vehicle: Klucel (hydroxypropylcellulose) (HPC).
[14] abbreviates: dose: 150.0 mg/kg/injection, schedule: Q04DX004 (ip), vehicle: Klucel (hydroxypropylcellulose) (HPC).
The mark [15] stands for this setting: dose: 300.0 mg/kg/injection, schedule: Q04DX004 (ip), vehicle: Klucel (hydroxypropylcellulose) (HPC).
Where [16] appears, read: dose: 25.0 mg/kg/injection, schedule: Q04DX004 (ip), vehicle: saline with Tween-80.
The mark [17] stands for this setting: dose: 400.0 mg/kg/injection, schedule: Q04DX004 (ip), vehicle: Klucel (hydroxypropylcellulose) (HPC).

As to `O=C(O)CCCc1ccc(N(CCCl)CCCl)cc1`, the T/C by setting is: (dose: 2.0 mg/kg/injection, schedule: Q04DX004 (ip), vehicle: saline with Tween-80) 108 % of control; (dose: 4.0 mg/kg/injection, schedule: Q04DX004 (ip), vehicle: saline with Tween-80) 114 % of control and 123 % of control; (dose: 8.0 mg/kg/injection, schedule: Q04DX004 (ip), vehicle: saline with Tween-80) 118 % of control.
Regarding `O=C(Nc1cc(Cl)ccc1C(=O)O)c1cccc(C[n+]2ccccc2)c1`, the T/C is, setting by setting: under setting [1], 100 % of control; under setting [2], 104 % of control; under setting [3], 95 % of control; (dose: 400.0 mg/kg/injection, schedule: Q04DX004 (ip), vehicle: saline with Tween-80) 88 % of control.
As to `CCCCCNc1ncnc2c(C)[nH]nc12`, the T/C was 105 % of control (dose: 25.0 mg/kg/injection, schedule: Q04DX004 (ip), vehicle: Klucel (hydroxypropylcellulose) (HPC)); 97 % of control under setting [4]; 103 % of control under setting [5]; 88 % of control under setting [6].
Consider `O=NNc1cnccn1`, for which the T/C by setting is: under setting [7], 107 % of control; under setting [8], 118 % of control and 123 % of control; (dose: 50.0 mg/kg/injection, schedule: Q04DX004 (ip), vehicle: water) 150 % of control and 155 % of control; (dose: 100.0 mg/kg/injection, schedule: Q04DX004 (ip), vehicle: water) 196 % of control.
For the compound `C/C(=N\Nc1cc(C)nc2ccc(C)cc12)c1cn(C)n(-c2ccccc2)c1=O`, the T/C (dose: 31.25 mg/kg/injection, schedule: Q04DX004 (ip), vehicle: Klucel (hydroxypropylcellulose) (HPC)) was 86 % of control.
For `NC(=O)c1oc([N+](=O)[O-])c(-c2ccccc2)c1-c1ccccc1`, the T/C is, setting by setting: under setting [9], 98 % of control; under setting [10], 93 % of control; under setting [11], 94 % of control; under setting [12], 89 % of control.
Turning to `O=c1[nH]cnc2n[nH]nc12`, the T/C runs as follows: under setting [13], 104 % of control; under setting [14], 94 % of control; under setting [15], 97 % of control; (dose: 600.0 mg/kg/injection, schedule: Q04DX004 (ip), vehicle: Klucel (hydroxypropylcellulose) (HPC)) 95 % of control.
For the compound `COc1ccc(-c2nnc3cc(C)n4nnnc4n23)cc1OC`, the T/C reads like this: (dose: 18.75 mg/kg/injection, schedule: Q04DX004 (ip), vehicle: Klucel (hydroxypropylcellulose) (HPC)) 99 % of control; (dose: 37.5 mg/kg/injection, schedule: Q04DX004 (ip), vehicle: Klucel (hydroxypropylcellulose) (HPC)) 94 % of control; under setting [13], 98 % of control; under setting [14], 99 % of control; under setting [15], 91 % of control.
For `CC(C)(O)/C=C/C(=O)[C@](C)(O)[C@H]1[C@H](O)C[C@@]2(C)[C@@H]3CC=C4[C@@H](C=C(O)C(=O)C4(C)C)[C@]3(C)C(=O)C[C@]12C`, the T/C by setting is: (dose: 0.5 mg/kg/injection, schedule: Q04DX004 (ip), vehicle: water) 111 % of control; (dose: 1.0 mg/kg/injection, schedule: Q04DX004 (ip), vehicle: water) 117 % of control; (dose: 1.67 mg/kg/injection, schedule: Q04DX004 (ip), vehicle: water) 113 % of control.
For `CN1C2C=CC(=O)C1C1C(=O)N(c3ccccc3)C(=O)C12` (stereo not given), the T/C under setting [4] is 102 % of control, the T/C under setting [5] is 96 % of control and the T/C under setting [6] was 118 % of control.
For the compound `O=C1N(Cl)C(=O)C(c2ccc(Cl)cc2)(c2ccc(Cl)cc2)N1Cl`, the T/C reads like this: under setting [16], 102 % of control; under setting [1], 102 % of control; under setting [2], 96 % of control.
For `COC(=O)N1C2CCCCC2=NN(c2ccccc2)N1C(=O)OC` (stereo not given), the T/C is 96 % of control under setting [4]; 101 % of control under setting [5]; 99 % of control under setting [6]; 95 % of control under setting [17]; 100 % of control (dose: 800.0 mg/kg/injection, schedule: Q04DX004 (ip), vehicle: Klucel (hydroxypropylcellulose) (HPC)).
On to `NC(=O)C(N)C(F)c1ccccc1` (stereo not given), for which the T/C is, setting by setting: (dose: 31.25 mg/kg/injection, schedule: Q04DX004 (ip), vehicle: saline with Tween-80) 100 % of control; (dose: 62.5 mg/kg/injection, schedule: Q04DX004 (ip), vehicle: saline with Tween-80) 116 % of control; (dose: 125.0 mg/kg/injection, schedule: Q04DX004 (ip), vehicle: saline with Tween-80) 93 % of control; (dose: 250.0 mg/kg/injection, schedule: Q04DX004 (ip), vehicle: saline with Tween-80) 96 % of control.
`CCCCCn1c(C)cc(/C=C\c2ccc3cc(C)ccc3[n+]2C)c1C`: the T/C is 103 % of control (dose: 1.0 mg/kg/injection, schedule: Q04DX004 (ip), vehicle: saline); 111 % of control (dose: 2.0 mg/kg/injection, schedule: Q04DX004 (ip), vehicle: saline); 111 % of control (dose: 4.0 mg/kg/injection, schedule: Q04DX004 (ip), vehicle: saline); 114 % of control (dose: 8.0 mg/kg/injection, schedule: Q04DX004 (ip), vehicle: saline).
With `COc1cc(C(C)c2cc3c(cc2OCCO)OCO3)cc(OC)c1OC` (stereo not given), the T/C by setting is: under setting [2], 108 % of control; under setting [3], 104 % of control.
In the case of `O=C(O)c1nn(-c2ccccc2-c2n[nH]c(=O)[nH]c2=O)c(=O)[nH]c1=O`, the T/C runs as follows: under setting [1], 101 % of control; under setting [2], 100 % of control; under setting [3], 92 % of control.
For the compound `CN1CCN(c2c(C(=O)Nc3ccc([N+](=O)[O-])cc3)cc([N+](=O)[O-])cc2[N+](=O)[O-])CC1`, the T/C runs as follows: under setting [9], 96 % of control; under setting [10], 91 % of control.
For the compound `O=C1[C@@H]2C3C=CC([C@H]4C(=O)N(CO)C(=O)[C@@H]34)[C@@H]2C(=O)N1CO`, the T/C reads like this: under setting [5], 102 % of control; under setting [6], 102 % of control; under setting [17], 98 % of control.
For `O=C1C[C@@H](c2ccccc2)NCCCCN(O)CCCN1`, the T/C (dose: 25.0 mg/kg/injection, schedule: Q04DX004 (ip), vehicle: saline) was 102 % of control; the T/C (dose: 50.0 mg/kg/injection, schedule: Q04DX004 (ip), vehicle: saline) is 102 % of control; the T/C (dose: 100.0 mg/kg/injection, schedule: Q04DX004 (ip), vehicle: saline) was 102 % of control.
For `S=c1sc(-c2ccc(Cl)cc2)nn1CSc1nc2ccccc2[nH]1`, the T/C is 105 % of control under setting [9], 98 % of control under setting [10], 96 % of control under setting [11] and 95 % of control under setting [12].
Regarding `Cc1ccc(C(=O)[O][Hg][CH2]C2COC([CH2][Hg][O]C(=O)c3ccc(C)cc3)CO2)cc1` (stereo not given), the T/C is 99 % of control (dose: 6.25 mg/kg/injection, schedule: Q04DX004 (ip), vehicle: saline with Tween-80); 88 % of control (dose: 12.5 mg/kg/injection, schedule: Q04DX004 (ip), vehicle: saline with Tween-80); 88 % of control under setting [16].
`Nc1n[n+](-c2ccccc2)no1`: the T/C under setting [7] was 111 % of control and 117 % of control; the T/C (dose: 12.5 mg/kg/injection, schedule: Q01DX009 (ip), vehicle: water) was 151 % of control; the T/C under setting [8] was 118 % of control; the T/C (dose: 25.0 mg/kg/injection, schedule: Q01DX009 (ip), vehicle: water) is 168 % of control; the T/C (dose: 50.0 mg/kg/injection, schedule: Q01DX009 (ip), vehicle: water) is 172 % of control and 235 % of control.
For `CC(=O)C1C(=O)C(=O)N(c2ccccc2C)C1=O` (stereo not given), the T/C was 104 % of control under setting [4], 93 % of control under setting [5], 102 % of control under setting [6] and 108 % of control under setting [17].
